Source: patent publication US20210379204A1, “METHOD FOR CALCULATING TOLERANCE DOSE OF HUMAN BODY TO SUGAR ALCOHOL AND FUNCTIONAL SUGAR” (Zhejiang Huakang Pharmaceutical Co., Ltd., priority 2018, published 2021)

Columns and labels:
[1] = 200 g rats, gavage each day, 14 days; maximum dose group in which no rat has diarrhea on day 14
Source text: at step 2, continuing the step 1 for 14 days;
At step 1, 200 g rats are selected as experimental animal objects, and the 200 g rats are divided into six experimental groups and one control group, with each group including ten numbered rats; and the rats in the six experimental groups (namely, dose (1) experimental group, dose (2) experimental group, dose (3) experimental group, dose (4) experimental group, dose (5) experimental group and dose (6) experimental group) are gavaged with different doses of xylitol each day. The ten rats in each group are gavaged with the same dose.
At step 2, the step 1 is continued for 14 days.
Specifically, 50 g of xylitol was set as the reference value, and estimated values of the experimental range of the human body to xylitol were set to 20 g/d, 30 g/d, 40 g/d, 50 g/d, 60 g/d and 70 g/d (six groups in total) according to the reference value. According to the conversion formula of drug doses of experimental animal and human body, the daily experimental dose of xylitol of 200 g rats was respectively obtained as 0.36 g/d, 0.54 g/d, 0.71 g/d, 0.89 g/d, 1.07 g/d and 1.25 g/d (six groups in total), and then experiments were performed respectively.
Similarly, estimated values of the human body to L-arabinose were respectively set to 70 g/d, 80 g/d, 90 g/d, 100 g/d, 110 g/d and 120 g/d (six groups in total) as the experimental range. According to the conversion formula of drug doses of experimental animal and human body, the daily experimental dose of L-arabinose of 200 g rats was respectively obtained as 1.25 g/d, 1.43 g/d, 1.61 g/d, 1.79 g/d, 1.96 g/d and 2.14 g/d (six groups in total), and then experiments were performed respectively.
Similarly, estimated values of the human body to sorbitol were respectively set to 5 g/d, 10 g/d, 15 g/d, 20 g/d, 25 g/d and 30 g/d (six groups in total) as the experimental range. […]

[2] = tolerated dose of a 70 kg human body converted from the rat maximum tolerated dose (K = 56.0); conditions: rat dose N x conversion factor 56.0
Source text: wherein K is a conversion factor between a 70 kg human body and a 200 g rat, which is 56.0; the maximum tolerated dose N of the rat to xylitol and the tolerated dose R of the human body to the xylitol are both in the unit of g/d; or,
wherein K is a conversion factor between a 70 kg human body and a 200 g rat, which is 56.0. The maximum tolerated dose N of the rat to xylitol and the tolerated dose R of the human body to the xylitol are both in the unit of g/d; or,
In the specific implementation, the maximum tolerated dose of the human body to a certain sugar alcohol or functional sugar recorded in the existing data is used as a reference value firstly. Taking xylitol as an example, the existing companies have declared that the daily intake of xylitol should not exceed 50 g. 50 g of xylitol is set as the reference value, and fluctuation is performed based on the reference value to obtain an estimated value of the experimental range. […] The experiment is continued for 14 days. Considering the experimental results and verification results comprehensively, the maximum tolerated dose N of 200 g rats to xylitol is obtained.

[3] = human daily intake, declared by some companies, no experimental data; cited from earlier work

SMILES | maximum tolerated dose N of 200 g rat [1] [g/day] | maximum tolerated dose R of the human body [2] [g/day] | daily intake should not exceed [3] [g]
OC[C@@H](O)[C@@H](O)[C@H](O)[C@@H](O)CO [sorbitol] | 0.36 | 20 | –
O=C[C@H](O)[C@@H](O)[C@@H](O)CO [L-arabinose] | 1.61 | 90 | ≤ 120
OC[C@@H](O)[C@H](O)[C@@H](O)CO [xylitol] | 0.71 | 40 | –
